How the values were obtained:
E. coli [1] = assay: Antimicrobial efficacy (log reduction) at fixed concentration and contact time; assay type: cell-based, Escherichia coli; details: for Antimicrobial Efficacy (log reduction) / Antimicrobial efficacy (Log reduction): 10 ppm; for Antimicrobial efficacy (Log reduction): contact time 1 minute
Protocol: Antimicrobial activity of the agents in aqueous solution was evaluated by a minimum inhibitory concentration (MIC) procedure (Kaminski, J. J., Hyycke, N. M. et al., Pharm. Sci., 65(12):1737 (1976)). MIC refers to the lowest concentration of biocides that prohibit population and reproduction of microorganisms. In this method, 1 mL of an aqueous suspension containing 10^6˜10^7 colony-forming units (CFU)/mL of Staphylococcus aureus (S. aureus, ATCC #12600, Gram-positive) or Escherichia coli (E. coli, K-12, Gram-negative) were placed into 9 mL aqueous solutions containing different concentrations of the agents for a contact time of 24 hours. After the contact, a 100 μL aliquot of the resultant solution was serially diluted by sterilized distilled water to 10^1, 10^2, 10^3, 10^4 and 10^5. 100 μL of the last four dilutions were placed onto a nutrient agar plate and incubated at 37° C. for 24 hours. The same procedure was applied to a distilled water solution without the antimicrobial agents as a control. In this paper, the reported MIC of the antimicrobial colorants is the minimum concentrations that can eliminate more than 4 log reductions of bacteria (1 log reduction is 90%, 2 log reduction is 99%, and so forth).
To better study the biocidal rate of these colorants, the antimicrobial efficacy of the colorants in terms of log reduction is assessed against E. Coli under different contact time ranging from 15 minutes to 24 hours.
Next, the antimicrobial efficacy of the colorants is further challenged by reducing the contact time down to 1 minute at the concentration of 10 ppm.

E. coli [2] = assay: as above; assay type: cell-based, Escherichia coli; details: E. coli 10^7~10^8 CFU/ml; for Antimicrobial Efficacy (log reduction): 10 ppm
[3] = test system: Staphylococcus aureus (S. aureus, ATCC #12600, Gram-positive); assay: Minimum inhibitory concentration (MIC) procedure in aqueous solution; assay type: cell-based; details: 10^7~10^8 CFU/mL, contact time: 24 hr, MIC = minimum concentration giving more than 4 log reductions
Protocol: (§1) Antimicrobial activity of the agents in aqueous solution was evaluated by a minimum inhibitory concentration (MIC) procedure ([…]. et al., Pharm. Sci., 65(12):1737 (1976)). MIC refers to the lowest concentration of biocides that prohibit population and reproduction of microorganisms. […] Antimicrobial properties of the antimicrobial colorants in aqueous solutions were measured by the MIC procedure.

[4] = test system: Escherichia coli (E. coli, K-12, Gram-negative); assay: as above; assay type: cell-based; details: 10^7~10^8 CFU/mL, contact time: 24 hr, MIC = minimum concentration giving more than 4 log reductions
Protocol: as §1

S. aureus = assay: Antimicrobial efficacy (log reduction) at fixed concentration and contact time; assay type: cell-based, Staphylococcus aureus; details: contact time 1 minute, 10 ppm
[5] = Stability study of colorant solutions by UV-vis absorbance; assay type: physicochemical; details: 100 ppm aqueous; 100° C. for 4 hours
Protocol: The stability of the antimicrobial colorants was qualitatively studied by using a UV-vis spectrophotometer under different experimental conditions. The tests were performed with antimicrobial colorant solutions at the concentration of 100 ppm in flasks. The colorants were sampled and the absorbance at the maximum absorption wavelength was tested before treatment as a reference. After visible light exposure in a conditioning room for over 30 days, or heating at boiling for 4 hours, or changing to different pH conditions (pH=4 and 10) for over 24 hours, the solutions were sampled, centrifuged, filtered and tested by UV. The new UV-vis spectra were taken and compared with the control.
The stability of the antimicrobial colorants is of great importance because they are mostly applied in aqueous solutions as biocides or dyes. All stability tests were conducted at a concentration of 100 ppm.
In practical applications, these colorants could be used under either acidic or basic conditions, particularly in coloration of acrylics, nylon and wool. For example, acidic dye bath is preferred for dyeing wool fabrics. Thus, the stability of the colorants in low or high pH solution is more important for textile applications. […] The low stability of those colorants was caused by hydrolysis of an amide linkage between QAS and aminoanthraquinone. […]

Structure (SMILES) | Antimicrobial Efficacy (log reduction) (E. coli [1]; contact time 0.25 hr) | Antimicrobial Efficacy (log reduction) (E. coli [1]; contact time 0.5 hr) | Antimicrobial Efficacy (log reduction) (E. coli [1]; contact time 1 hr) | Antimicrobial Efficacy (log reduction) (E. coli [1]; contact time 2 hr) | Antimicrobial Efficacy (log reduction) (E. coli [1]; contact time 4 hr) | Antimicrobial Efficacy (log reduction) (E. coli [1]; contact time 8 hr) | Antimicrobial Efficacy (log reduction) (E. coli [1]; contact time 16 hr) | Antimicrobial Efficacy (log reduction) (E. coli [1]; contact time 24 hr) | Log reduction (E. coli [2]; 5 ppm, contact time 1 minute) | MIC of cationic colorants [3] | MIC of cationic colorants [4] | Antimicrobial Efficacy (log reduction) (E. coli [2]) | Antimicrobial efficacy (Log reduction) (S. aureus) | Antimicrobial efficacy (Log reduction) (E. coli [1]) | Biocidal activity compared with CTAB, CPC and Benzalkonium chloride (E. coli [1]; Table 6 conditions) | Change of UV-vis absorbance after heating [5] | Change of UV-vis wavelength after heating [5]
CCCCCCCC[N+](C)(C)CC(O)CNc1ccc(NCC(O)C[N+](C)(C)CCCCCCCC)c2c1C(=O)c1ccccc1C2=O.[Cl-].[Cl-] (centres unmarked) [Di-8] | >4 log reduction | >4 log reduction | >4 log reduction | >4 log reduction | >4 log reduction | >4 log reduction | >4 log reduction | >4 log reduction | 1 Log reduction | 5 ppm | 5 ppm | – | – | – | – | – | –
CCCCCCCCCCCCCCCC[N+](C)(C)Cc1ccccc1.[Cl-] [Benzalkonium chloride, Benzyldimethyl-hexadecylammonium chloride, reference compound] | – | – | – | – | – | – | – | – | – | – | – | 2 log reduction | – | – | – | – | –
CCCCCCCCCCCCCCCC[N+](C)(C)CC(O)CNc1cccc2c1C(=O)c1ccccc1C2=O.[Cl-] (centres unmarked) [Compound M-16] | – | – | – | – | – | – | – | – | – | 60 ppm | 60 ppm | – | 0 Log reduction | 0 Log reduction | – | – | –
CCCCCCCCCCCCCCCC[N+](C)(C)CC(O)CNc1ccc(NCC(O)C[N+](C)(C)CCCCCCCCCCCCCCCC)c2c1C(=O)c1ccccc1C2=O.[Cl-].[Cl-] (centres unmarked) [Di-16] | – | – | – | – | – | – | – | – | – | 60 ppm | 60 ppm | – | 0 Log reduction | 0 Log reduction | – | – | –
CCCCCCCCCCCCCCCC[N+](C)(C)C.[Br-] [CTAB, Cetyltrimethyl ammonium bromide, reference compound] | – | – | – | – | – | – | – | – | – | – | – | 0 log reduction | – | – | – | – | –
CCCC[N+](C)(C)CC(O)CNc1ccc(NCC(O)C[N+](C)(C)CCCC)c2c1C(=O)c1ccccc1C2=O.[Cl-].[Cl-] (centres unmarked) [Di-4] | 0 log reduction | 0 log reduction | 0 log reduction | 0 log reduction | 0 log reduction | 0 log reduction | 0 log reduction | 0 log reduction | – | 200 ppm | 200 ppm | – | 0 Log reduction | 0 Log reduction | – | – | –
CCCCCCCCCCCC[N+](C)(C)CC(O)CNc1ccc(NCC(O)C[N+](C)(C)CCCCCCCCCCCC)c2c1C(=O)c1ccccc1C2=O.[Cl-].[Cl-] (centres unmarked) [Di-12] | >4 log reduction | >4 log reduction | >4 log reduction | >4 log reduction | >4 log reduction | >4 log reduction | >4 log reduction | >4 log reduction | – | 4 ppm | 4 ppm | >5 log reduction | – | – | more efficient in biocidal activity than the other three bactericides | slight increases in absorbance | negligible change
